Results from ChEMBL document CHEMBL5620412, “Discovery of benzofuran-2-carboxylic acid derivatives as lymphoid tyrosine phosphatase (LYP) inhibitors for cancer immunotherapy” (Eur J Med Chem, 2023).
Activity calls are given as the source filed them. The rule behind the calls is not given here.

Key:
MC-38 [1] = assay: Antitumor immunity against mouse MC-38 cells implanted in syngenic C57BL/6J mouse model assessed as increase in M1 tumor associated macrophage proportion in tumor at 50 mg/kg, IG administered twice daily for 14 days by flow cytometric analysis; format: functional, organism-based; details: time 14.0 day
Jurkat T [2] = assay: Activation of TCR signaling in human Jurkat T cells assessed as increase in ERK phosphorylation preincubated with compound for 1 hrs followed by anti-CD3 stimulation and measured after 45 mins by immunoblot analysis; format: cell-based; details: filed as activator, time 105.0 min
MC-38 [3] = assay: Antitumor immunity against mouse MC-38 cells implanted in syngenic C57BL/6J mouse model assessed as increase in CD45+ cell proportion in tumor at 50 mg/kg, IG administered twice daily for 14 days by flow cytometric analysis; format: functional, organism-based; details: time 14.0 day
MC-38 [4] = assay: Antitumor immunity against mouse MC-38 cells implanted in syngenic C57BL/6J mouse model assessed as upregulation of PD1 expression in CD4+ T cells at 50 mg/kg, IG administered twice daily for 14 days by flow cytometric analysis; format: functional, organism-based; details: time 14.0 day
MC-38 [5] = assay: Antitumor immunity against mouse MC-38 cells implanted in syngenic C57BL/6J mouse model assessed as increase in Ki67 positive CD4+ T cells at 50 mg/kg, IG administered twice daily for 14 days by Ki67 staining based flow cytometric analysis; format: functional, organism-based; details: time 14.0 day
MC-38 [6] = assay: Antitumor activity against mouse MC-38 cells implanted in syngenic C57BL/6J mouse model at 50 mg/kg, IG administered twice daily for 14 days by H&E staining based analysis; format: functional, organism-based; details: time 14.0 day
MC-38 [7] = assay: Antitumor immunity against mouse MC-38 cells implanted in syngenic C57BL/6J mouse model assessed as increase in NKT cell proportion at 50 mg/kg, IG administered twice daily for 14 days; format: functional, organism-based; details: time 14.0 day
MC-38 [8] = assay: Antitumor immunity against mouse MC-38 cells implanted in syngenic C57BL/6J mouse model assessed as upregulation of PD1 expression in CD8+ T cells at 50 mg/kg, IG administered twice daily for 14 days by flow cytometric analysis; format: functional, organism-based; details: time 14.0 day
[9] = Upregulation of PD-L1 expression in mouse MC-38 cells at 20 uM incubated for 48 hrs by flow cytometric analysis (reference value: 23.3%); format: functional
MC-38 [10] = assay: Antitumor immunity against mouse MC-38 cells implanted in syngenic C57BL/6J mouse model assessed as increase in Ki67 positive CD8+ T cells at 50 mg/kg, IG administered twice daily for 14 days by Ki67 staining based flow cytometric analysis; format: functional, organism-based; details: time 14.0 day
MC-38 [11] = assay: Antitumor immunity against mouse MC-38 cells implanted in syngenic C57BL/6J mouse model assessed as increase in tumor infiltration of CD8+ T cells at 50 mg/kg, IG administered twice daily for 14 days by DAPI staining based immunofluorescence analysis; format: functional, organism-based; details: time 14.0 day
MC-38 [12] = assay: Antitumor immunity against mouse MC-38 cells implanted in syngenic C57BL/6J mouse model assessed as increase in CD8+ T cell proportion in tumor at 50 mg/kg, IG administered twice daily for 14 days by flow cytometric analysis; format: functional, organism-based; details: time 14.0 day
MC-38 [13] = assay: Antitumor immunity against mouse MC-38 cells implanted in syngenic C57BL/6J mouse model assessed as increase in TNF-alpha expression at 50 mg/kg, IG administered twice daily for 14 days; format: functional, organism-based; details: time 14.0 day
MC-38 [14] = assay: Antitumor immunity against mouse MC-38 cells implanted in syngenic C57BL/6J mouse model assessed as inhibition of M2 polarization of tumor associated macrophage in tumor at 50 mg/kg, IG administered twice daily for 14 days by flow cytometric analysis; format: functional, organism-based; details: time 14.0 day
Jurkat T [15] = assay: Activation of TCR signaling in […] transfected human Jurkat T cells assessed as increase in ERK phosphorylation preincubated with compound for 1 hrs followed by anti-CD3 stimulation and measured after 45 mins by immunoblot analysis; format: cell-based; details: time 105.0 min
MC-38 [16] = assay: Antitumor immunity against mouse MC-38 cells implanted in syngenic C57BL/6J mouse model assessed as increase in M1 tumor associated macrophage proportion in spleen at 50 mg/kg, IG administered twice daily for 14 days by flow cytometric analysis; format: functional, organism-based; details: time 14.0 day
Jurkat T [17] = assay: Activation of TCR signaling in […] transfected human Jurkat T cells assessed as increase in LCK phosphorylation preincubated with compound for 1 hrs followed by anti-CD3 stimulation and measured after 45 mins by immunoblot analysis; format: cell-based; details: time 105.0 min
MC-38 [18] = assay: Antitumor activity against mouse MC-38 cells implanted in syngenic C57BL/6J mouse model assessed as tumor growth inhibition at 50 mg/kg, IG administered twice daily for 14 days relative to control; format: functional; details: MC-38, po, 336 h, time 14 day, read-out: TGI
MC-38 [19] = assay: Antitumor immunity against mouse MC-38 cells implanted in syngenic C57BL/6J mouse model assessed as increase in IFN-gamma expression at 50 mg/kg, IG administered twice daily for 14 days; format: functional, organism-based; details: time 14.0 day
MC-38 [20] = assay: Antitumor immunity against mouse MC-38 cells implanted in syngenic C57BL/6J mouse model assessed as upregulation of PD-L1 expression in macrophages at 50 mg/kg, IG administered twice daily for 14 days by flow cytometric analysis; format: functional, organism-based; details: time 14.0 day
MC-38 [21] = assay: Antitumor immunity against mouse MC-38 cells implanted in syngenic C57BL/6J mouse model assessed as increase in CD4+ T cell proportion in tumor at 50 mg/kg, IG administered twice daily for 14 days by flow cytometric analysis; format: functional, organism-based; details: time 14.0 day
MC-38 [22] = assay: Antitumor activity against mouse MC-38 cells implanted in syngenic C57BL/6J mouse model assessed as tumor growth inhibition at 50 mg/kg, IG administered twice daily for 14 days in presence of anti-PD-L1 antibody relative to control; format: functional; details: MC-38, po, 336 h, time 14 day, read-out: TGI
MC-38 [23] = assay: Antitumor immunity against mouse MC-38 cells implanted in syngenic C57BL/6J mouse model assessed as upregulation of PD-L1 expression in dendritic cells at 50 mg/kg, IG administered twice daily for 14 days by flow cytometric analysis; format: functional, organism-based; details: time 14.0 day
[24] = Toxicity in C57BL/6J syngenic mouse implanted with mouse MC-38 cells assessed as effect on body weight at 50 mg/kg, IG administered twice daily for 14 days; format: organism-based; details: in vivo, po, 336 h, time 14 day
MC-38 [25] = assay: Antitumor immunity against mouse MC-38 cells implanted in syngenic C57BL/6J mouse model assessed as inhibition of M2 polarization of tumor associated macrophage in spleen at 50 mg/kg, IG administered twice daily for 14 days by flow cytometric analysis; format: functional, organism-based; details: time 14.0 day
[26] = Upregulation of PD-L1 expression in mouse MC-38 cells at 10 uM incubated for 48 hrs by flow cytometric analysis (reference value: 23.3%); format: functional
Jurkat T [27] = assay: Activation of TCR signaling in human Jurkat T cells assessed as increase in LCK phosphorylation preincubated with compound for 1 hrs followed by anti-CD3 stimulation and measured after 45 mins by immunoblot analysis; format: cell-based; details: filed as activator, time 105.0 min
MC-38 [28] = assay: Antiproliferative activity against mouse MC-38 cells assessed as reduction in cell viability upto 4 uM incubated for 72 hrs by CCK8 assay; format: functional, cell-based

Compound | Activity (MC-38 [1]) | Activity (Jurkat T [2]) | Activity (MC-38 [3]) | Activity (MC-38 [4]) | Activity (MC-38 [5]) | Activity (MC-38 [6]) | Activity (MC-38 [7]) | Activity (MC-38 [8]) | Activity [9] [%] | Activity (MC-38 [10]) | Activity (MC-38 [11]) | Activity (MC-38 [12]) | Activity (MC-38 [13]) | Activity (MC-38 [14]) | Activity (Jurkat T [15]) | Activity (MC-38 [16]) | Activity (Jurkat T [17]) | inhibition in vivo at 50 mg/kg (MC-38 [18]) [%] | Activity (MC-38 [19]) | Activity (MC-38 [20]) | also measured
O=C(O)c1cc2cc(N(Cc3ccc(OCc4ccccc4)cc3)S(=O)(=O)c3ccc(-c4ccccc4)cc3)ccc2o1 | Active | Active | Active | Active | Active | Active | Active | Active | 59.2 | Active | Active | Active | Active | Active | inactive | Active | inactive | 65 | Active | Active | Activity (MC-38 [21]): Active; inhibition in vivo at 50 mg/kg (MC-38 [22]): 94.3%; Activity (MC-38 [23]): Active; Activity [24]: Non-Toxic; Activity (MC-38 [25]): Active; Activity [26]: 46.1%; Activity (Jurkat T [27]): Active; Activity (MC-38 [28]): inactive
COc1ccc(-c2ccc(CN(c3ccc4oc(C(=O)O)cc4c3)S(=O)(=O)c3ccc(Cl)c([N+](=O)[O-])c3)cc2)cc1 | Active | Active | Active | Active | Active | Active | Active | Active | 43.6 | Active | Active | Active | Active | Active | inactive | Active | inactive | 69.6 | Active | Active | Activity (MC-38 [21]): Active; inhibition in vivo at 50 mg/kg (MC-38 [22]): 94.3%; Activity (MC-38 [23]): Active; Activity [24]: Non-Toxic; Activity (MC-38 [25]): Active; Activity [26]: 37.2%; Activity (Jurkat T [27]): Active; Activity (MC-38 [28]): inactive
